Data taken from ChEMBL document CHEMBL3217550, “Synthesis and synergistic antimycobacterial screening of chlorpromazine and its metabolites” (2014).
Values after ≈ are worked out from the molar mass of the structure shown.

Legend:
Format in all cases: functional
[1] = test system: Mycolicibacterium smegmatis; experiment: Antimycobacterial against Mycobacterium smegmatis
[2] = test system: Mycolicibacterium smegmatis; experiment: Antimycobacterial against Mycobacterium smegmatis in presence of 25-desacetylrifampicin
[3] = test system: Mycolicibacterium smegmatis; experiment: Antimycobacterial against Mycobacterium smegmatis in presence of spectinomycin
[4] = test system: Mycolicibacterium smegmatis; experiment: Antimycobacterial against Mycobacterium smegmatis in presence of kanamycin
[5] = test system: Mycolicibacterium smegmatis; experiment: Antimycobacterial against Mycobacterium smegmatis in presence of streptomycin
[6] = test system: Mycolicibacterium smegmatis; experiment: Antimycobacterial against Mycobacterium smegmatis in presence of rifampicin
[7] = test system: Mycolicibacterium smegmatis; experiment: Antimycobacterial against Mycobacterium smegmatis in presence of chlorpromazine
[8] = test system: Mycolicibacterium smegmatis; experiment: Antimycobacterial against Mycobacterium smegmatis in presence of ciprofloxacin
[9] = test system: Mycolicibacterium smegmatis; experiment: Antimycobacterial against Mycobacterium smegmatis in presence of TMC207

Question: How did the MIC99 [1] turn out when `CNCCCN1c2ccccc2[S+]([O-])c2ccc(Cl)cc21` (configuration not stated) was run?
Answer: Its MIC99 is greater than 2080 µM.

Question: How did the “fractional inhibitory concentration index (FICI)” value [2] turn out when `C[N+](C)([O-])CCCN1c2ccccc2Sc2ccc(Cl)cc21` was run?
Answer: The value was 0.75.

Question: And the “fractional inhibitory concentration index (FICI)” value [3]?
Answer: Its value is 0.63.

Question: And the “fractional inhibitory concentration index (FICI)” value [4]?
Answer: The value was 1.

Question: What about the “fractional inhibitory concentration index (FICI)” value [5] of the same compound?
Answer: Its value is 0.74.

Question: What about the MIC99 [1] of the same compound?
Answer: The MIC99 was 995 µM (≈ 333 µg/mL).

Question: And the “fractional inhibitory concentration index (FICI)” value [6]?
Answer: The value was 1.

Question: How did the MIC99 [1] turn out when `C[N+](C)([O-])CCCN1c2ccccc2[S+]([O-])c2ccc(Cl)cc21` (configuration not stated) was run?
Answer: The MIC99 was greater than 1900 µM.

Question: For `CN(C)CCCN1c2ccc(O)cc2Sc2ccc(Cl)cc21` [7-HYDROXYCHLORPROMAZINE], which “fractional inhibitory concentration index (FICI)” value [2] is on record?
Answer: The value was 0.75.

Question: What about the “fractional inhibitory concentration index (FICI)” value [3] of the same compound?
Answer: The value was 0.19.

Question: And the “fractional inhibitory concentration index (FICI)” value [4]?
Answer: The value was 0.5.

Question: What about the “fractional inhibitory concentration index (FICI)” value [5] of the same compound?
Answer: The value was 0.79.

Question: What about the “fractional inhibitory concentration index (FICI)” value [7] of the same compound?
Answer: Its value is 0.75.

Question: What about the MIC99 [1] of the same compound?
Answer: Its MIC99 is 62.2 µM (≈ 20.8 µg/mL).

Question: And the “fractional inhibitory concentration index (FICI)” value [6]?
Answer: Its value is 0.63.

Question: For `COc1nc2ccc(Br)cc2cc1[C@@H](c1ccccc1)[C@@](O)(CCN(C)C)c1cccc2ccccc12` [BEDAQUILINE], which MIC99 [1] is on record?
Answer: Its MIC99 is 0.05 µM (≈ 0.0278 µg/mL).

Question: Which MIC99 [1] does the source give for `CN(C)CCCN1c2ccccc2[S+]([O-])c2ccc(Cl)cc21` (configuration not stated) [CHLOROPROMAZINE SULFOXIDE] here?
Answer: The MIC99 was greater than 1990 µM.

Question: With `CN(C)CCCN1c2ccccc2Sc2ccc(Cl)cc21` [CHLORPROMAZINE] as the compound, how does the “fractional inhibitory concentration index (FICI)” value [8] read?
Answer: The value was 0.73.

Question: What about the “fractional inhibitory concentration index (FICI)” value [9] of the same compound?
Answer: Its value is 0.7.

Question: And the “fractional inhibitory concentration index (FICI)” value [2]?
Answer: The value was 0.5.

Question: What about the “fractional inhibitory concentration index (FICI)” value [3] of the same compound?
Answer: Its value is 0.31.

Question: And the “fractional inhibitory concentration index (FICI)” value [4]?
Answer: Its value is 1.

Question: What about the “fractional inhibitory concentration index (FICI)” value [5] of the same compound?
Answer: Its value is 0.79.

Question: And the MIC99 [1]?
Answer: The MIC99 was 58.6 µM (≈ 18.7 µg/mL).

Question: What about the “fractional inhibitory concentration index (FICI)” value [6] of the same compound?
Answer: The value was 0.63.

Question: How did the MIC99 [1] turn out when `O=C(O)c1cn(C2CC2)c2cc(N3CCNCC3)c(F)cc2c1=O` [CIPROFLOXACIN] was run?
Answer: The MIC99 was 0.63 µM (≈ 0.209 µg/mL).

Question: `CO[C@H]1/C=C/O[C@@]2(C)Oc3c(C)c(O)c4c(O)c(c(/C=N/N5CCN(C)CC5)c(O)c4c3C2=O)NC(=O)/C(C)=C\C=C\[C@H](C)[C@H](O)[C@@H](C)[C@@H](O)[C@@H](C)[C@H](O)[C@@H]1C` [DESACETYLRIFAMPIN] was tested. Which MIC99 [1] did it give?
Answer: Its MIC99 is 1.33 µM (≈ 1.04 µg/mL).

Question: And the “fractional inhibitory concentration index (FICI)” value [6]?
Answer: The value was 0.5.

Question: `CC[C@@H](CO)NCCN[C@@H](CC)CO` [ETHAMBUTOL] was tested. Which MIC99 [1] did it give?
Answer: The MIC99 was 0.76 µM (≈ 0.155 µg/mL).

Question: For `NC[C@H]1O[C@H](O[C@H]2[C@H](O)[C@@H](O[C@H]3O[C@H](CO)[C@@H](O)[C@H](N)[C@H]3O)[C@H](N)C[C@@H]2N)[C@H](O)[C@@H](O)[C@@H]1O` [KANAMYCIN], which MIC99 [1] is on record?
Answer: The MIC99 was 1.76 µM (≈ 0.853 µg/mL).

Question: How did the MIC99 [1] turn out when `C[C@H]1COc2c(N3CCN(C)CC3)c(F)cc3c(=O)c(C(=O)O)cn1c23` [LEVOFLOXACIN] was run?
Answer: The MIC99 was 0.58 µM (≈ 0.21 µg/mL).

Question: For `CCn1cc(C(=O)O)c(=O)c2ccc(C)nc21` [NALIDIXIC ACID], which MIC99 [1] is on record?
Answer: The MIC99 was 1440 µM (≈ 333 µg/mL).

Question: How did the “fractional inhibitory concentration index (FICI)” value [2] turn out when `CNCCCN1c2ccccc2Sc2ccc(Cl)cc21` [NOR1-CHLORPROMAZINE] was run?
Answer: The value was 0.5.

Question: And the “fractional inhibitory concentration index (FICI)” value [3]?
Answer: Its value is 0.31.

Question: And the “fractional inhibitory concentration index (FICI)” value [4]?
Answer: Its value is 0.5.

Question: And the “fractional inhibitory concentration index (FICI)” value [5]?
Answer: The value was 0.49.

Question: And the “fractional inhibitory concentration index (FICI)” value [7]?
Answer: The value was 0.75.

Question: And the MIC99 [1]?
Answer: The MIC99 was 63.3 µM (≈ 19.3 µg/mL).

Question: And the “fractional inhibitory concentration index (FICI)” value [6]?
Answer: The value was 0.5.

Question: With `CO[C@H]1/C=C/O[C@@]2(C)Oc3c(C)c(O)c4c(O)c(c(/C=N/N5CCN(C)CC5)c(O)c4c3C2=O)NC(=O)/C(C)=C\C=C\[C@H](C)[C@H](O)[C@@H](C)[C@@H](O)[C@@H](C)[C@H](OC(C)=O)[C@@H]1C` [RIFAMPIN] as the compound, how does the MIC99 [1] read?
Answer: The MIC99 was 1.26 µM (≈ 1.04 µg/mL).

Question: With `CN[C@@H]1[C@H](O)[C@H](NC)[C@H]2O[C@@]3(O)C(=O)C[C@@H](C)O[C@H]3O[C@@H]2[C@H]1O` [SPECTINOMYCIN] as the compound, how does the MIC99 [1] read?
Answer: Its MIC99 is 84.1 µM (≈ 28 µg/mL).

Question: How did the MIC99 [1] turn out when `CN[C@@H]1[C@H](O[C@H]2[C@H](O[C@H]3[C@H](O)[C@@H](O)[C@H](N=C(N)N)[C@@H](O)[C@@H]3N=C(N)N)O[C@@H](C)[C@]2(O)C=O)O[C@@H](CO)[C@H](O)[C@H]1O` [STREPTOMYCIN] was run?
Answer: Its MIC99 is 0.07 µM (≈ 0.0407 µg/mL).
